Common to all, as to experiment: NCI-60 cell line screen, 48 h
Assay [1] relates to SR leukemia.
For assay [2], the system named is KM12 colon.
The subject of assay [3] is SK-MEL-28 melanoma.
Assay [4] has as its system SF-295 CNS.
Assay [5] has as its system OVCAR-4 ovarian.
Assay [6] has as its system COLO 205 colon.
Assay [7] relates to TK-10 renal.
Assay [8] deals with SNB-19 CNS.
Assay [9] concerns OVCAR-8 ovarian.
The subject of assay [10] is OVCAR-3 ovarian.

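Step 1: Grow cells in 96-well plates. Step 2: Expose to compound for 48 hours at 5 concentrations. Step 3: Interpolate endpoints linearly; if unreached, use highest concentration. TGI marks complete inhibition of growth.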

Turning to `Oc1cccc2nc3cc(CN4CCOCC4)c(CN4CCOCC4)cc3nc12`, the TGI in assay [1], in assay [2], in assay [3], in assay [4], in assay [5] and in assay [6] was more than 100 µM in each case. Further, the TGI in assay [7], in assay [8], in [9] and in assay [10] was more than 100 µM throughout.

On to `CCOc1ccc(C(c2c(O)c3ccccc3oc2=O)c2c(O)c3ccccc3oc2=O)cc1`, for which the TGI in assay [1] was 58.7 µM; in [2], more than 100 µM; in assay [3] it was more than 100 µM; in assay [4], more than 100 µM; in assay [5], more than 100 µM; in [6] it was more than 100 µM. Moreover, the TGI in [7], in assay [8], in assay [9] and in assay [10] was more than 100 µM throughout.

Turning to `COC(=O)C(Cc1ccccc1)NC(=O)C(CCCN=C(N)N)NC(=O)OCc1ccccc1` (stereo not given), the TGI in [1], in assay [2], in assay [3], in assay [4], in assay [5] and in [6] was more than 100 µM in each case. The TGI in assay [7], in assay [8], in assay [9] and in assay [10] was more than 100 µM each time.

Consider `CCc1c(-c2coc(CC/C(C)=C/c3ccccc3)n2)oc(OC)c(C)c1=O`, for which the TGI is 29.3 µM in assay [1]; more than 100 µM in assay [2]; more than 100 µM in [3]; more than 100 µM in [4]; more than 55.5 µM in assay [5]; more than 47.8 µM in assay [6]. Further, the TGI is more than 100 µM in assay [7], more than 86.3 µM in [8], more than 100 µM in [9] and more than 100 µM in assay [10].

`CCC(=O)n1c(=O)n(-c2ccc([N+](=O)[O-])cc2)c(=O)n1C(=O)CC`: the TGI in assay [1], in assay [2], in assay [3], in assay [4], in [5] and in [6] was more than 100 µM in each case. Moreover, the TGI in assay [7], in [8], in assay [9] and in assay [10] was more than 100 µM each time.

As to `[N-]=[N+]=NC(c1cn(C2CC(O)C(CO)O2)c(=O)[nH]c1=O)C(I)I` (stereo not given), the TGI in assay [1], in [2], in assay [3], in assay [4], in assay [5] and in assay [6] was more than 100 µM in each case. For the same compound, the TGI in assay [7], in [8], in assay [9] and in assay [10] was more than 100 µM throughout.

For `CN(C)C(=O)CO/N=C1/C(c2c(O)[nH]c3ccccc23)=Nc2ccccc21`, the TGI in assay [1], in [2], in [3], in assay [4], in assay [5] and in assay [6] was more than 100 µM in each case. For the same compound, the TGI in assay [7], in assay [8], in assay [9] and in assay [10] was more than 100 µM in each case.

As to `CC1(C)CC(=O)C2=C(C1)N(c1ccccc1)C1(O)C=CC(=O)C3=C(O)c4ccccc4C(=O)C321` (stereo not given), the TGI is 56.4 µM in assay [1]; 86.3 µM in assay [2]; 39.3 µM in [3]; more than 100 µM in assay [4]; 43.9 µM in assay [5]; more than 100 µM in assay [6]. Also, the TGI in [7] was 52.2 µM; in assay [8], 54.5 µM; in assay [9], more than 100 µM; in [10], more than 100 µM.

As for `OC1NC2CC3NC(O)C(O)NC3CC2NC1O` (stereo not given), the TGI in assay [1], in assay [2], in assay [3], in assay [4], in [5] and in [6] was more than 100 µM throughout. Further, the TGI in assay [7], in assay [8], in assay [9] and in [10] was more than 100 µM throughout.

Turning to `Cc1ccc(C(=O)/C=C/N2CCN(c3cccc(C(F)(F)F)c3)CC2)cc1`, the TGI in [1] is 40.3 µM; in assay [2] it was 38.1 µM; in [3] it was 38.4 µM; in assay [4], 34 µM; in assay [5], more than 100 µM; in assay [6] it was 72 µM. Also, the TGI in assay [7] is 56.8 µM; in assay [8], more than 100 µM; in assay [9], 38.9 µM; in assay [10] it was 28.5 µM.

`CC(=O)O[C@@H]1CC2[C@@H](CCC3Cc4nc5c(nc4C[C@@]32C)CC2CC[C@@H]3C(CC[C@@]4(C)C3CC[C@@H]4C(C)CCCC(C)C)[C@@]2(C)C5)C2C[C@@H]3OC4(CCC(C)CO4)C(C)[C@@H]3[C@]21C` (stereo not given in full): the TGI in [1], in [2], in assay [3], in assay [4], in assay [5] and in [6] was more than 100 µM in each case. In addition, the TGI in [7], in assay [8], in [9] and in assay [10] was more than 100 µM each time.

With `CC1(C)N=C(/C(C#N)=[N+](/[O-])C(=O)c2ccccc2)C(C)(C)N1O`, the TGI in [1], in [2], in [3], in [4], in assay [5] and in assay [6] was more than 100 µM in each case. In addition, the TGI in assay [7], in assay [8], in assay [9] and in assay [10] was more than 100 µM each time.

Take `CC1=NN(c2cccc(Cl)c2)C2(C1)SCC(=O)N2c1nc2ccccc2s1` (stereo not given): the TGI is 37.8 µM in [1]; 69.2 µM in assay [2]; more than 100 µM in [3]; 74.9 µM in [4]; more than 100 µM in [5]; 32.5 µM in assay [6]. Also, the TGI is 74.1 µM in assay [7], more than 100 µM in assay [8], more than 100 µM in assay [9] and 58.9 µM in assay [10].

The record behind these values is PubChem BioAssay (NCI).
